This is an account of results in patent US20250051301A1, “MUTANT IDH1 AND IDH2 INHIBITOR AND APPLICATION THEREOF” (Betta Pharmaceuticals Co., Ltd, priority 2022, published 2025).

Molecules are shown by their SMILES. Converted amounts (≈) assume the structure as drawn.

One data set has as its system mutant IDH1. The following applies: AML or MDS patients carrying IDH1 gene mutations, Phase I; cited from earlier work.
Data set [1] has as its target T1, IDH1^R132H (Homo sapiens, UniProt O75874, R132H). Kind of data set: Enzyme activity inhibition assay (fluorescence-based), IDH1 R132H. It is filed as biochemical. On the procedure: (§1) The inhibitory ability of the compounds on the enzyme activities of IDH1^R132H and IDH2^R140Qwas detected and expressed as the half inhibitory concentration (IC50) value. AG-881 was used as a positive control compound. In this experiment, compounds were screened on enzymes IDH1^R132H and IDH2^R140Q using a fluorescence-based method (initial concentration: 10000 nM, 3-fold dilution, 10 concentrations, and single-well detection). • (1) Preparation of 1×assay buffer. • (2) Preparation of compound concentration gradient: the compounds to be tested were assayed at an initial concentration of 10000 nM, with 3-fold dilution and 10 concentrations, and diluted into 200-fold the final concentration in 100% DMSO solution in a 384-well plate. • (3) 250 nL of DMSO and 250 nL of diluted compounds were transferred to a reaction plate with Echo 550. • (4) IDH2^R140Q enzyme detection: 25 μL of an IDH2^R140Q enzyme solution was added, and the mixture was incubated for 60 minutes; then 25 μL of a substrate solution was added, and the mixture was incubated for 150 minutes; then 25 μL of a detection buffer was added, and the mixture was shaken for 1 minute and incubated for 60 minutes; and finally, Synergy 2, Ex544/Em590 cutoff 590 was used for reading. • (5) IDH1^R132H enzyme detection: 40 μL of a mixture solution of an IDH1^R132H enzyme at the 1.25-fold final concentration and NADPH was added, and the mixture was incubated for 60 minutes; then 10 μL of a substrate solution at the 5-fold final concentration was added, and the mixture was incubated for 90 minutes; then 25 μL of a detection buffer at the 3-fold final concentration was added, and the mixture was shaken for 1 minute. and finally, Synergy 2, Ex544/Em590 cutoff 590 was used for reading. • (8) Inhibition rate calculation, formula: % Inhibition=(RFU_sample−RFU_min)/(RFU_max−RFU_min)*100%, wherein RFU-sample represents the fluorescence intensity of a sample; RFU-min represents the average value of negative control wells and represents the fluorescence intensity with an enzyme; and RFU-max represents the average value of positive control wells and represents the fluorescence intensity without an enzyme. The curve fitting was performed using Graphpad Prism software to obtain IC50 values, and the test results were as shown in table 2.

The target of data set [2] is T1, IDH1^R132H. The data set can be described thus: 2-HG assay in cells (U87 cell line stably transfected with IDH1-R132H). It is filed as cell-based. The following applies: 72 hours, read-out: 2-HG in medium (IC50, nM) (IDH1^R132H). Here is the method: The compounds were detected for the inhibition of 2-HG production in the U87 cell line stably transfected with IDH1-R132H and the culture supernatant of TF-1 cells stably transfected with IDH2-R140Q. • (1) The cultured cells were collected by centrifugation, then suspended in a cell culture solution, counted, and seeded in a 96-well cell culture plate at 160 μL of cell suspension/well (20000 cells/well for U87-IDH1-R132H; 10000 cells/well for TF-1-IDH2-R140Q). • (2) A 96-well plate dilution was taken, and the compounds to be tested were diluted in a gradient manner in DMSO and a cell culture solution; and then 40 μL of the gradient-diluted compounds to be tested were added to the 96-well plate on which cells have been plated. […] Finally, the plate was cultured in a 37° C. incubator containing 5% CO2. • (3) After the compounds were incubated with the cells for 72 hours, the cell culture plate was taken out and centrifuged at 1500 rpm for 5 minutes, and then 100 μL of the medium supernatant was aspirated for 2-HG detection. • (4) 2-HG detection: the cell supernatant was diluted with purified water, 30 μL of the diluted sample was taken into a 1.5 ml centrifuge tube, and 200 μL of the internal standard solution was added. The mixture was mixed uniformly by vortex and centrifuged at 3200 rpm at 4° C. for 15 minutes. 100 μL of the supernatant solution was diluted with water at a 1:1 ratio and then detected by LC-MS. Analyte Peak Area was used to represent the 2-HG levels. • (5) Inhibition rate calculation, formula: % Inhibition=(1−Analyte Peak Area_sample/Analyte Peak Area_max)*100%, wherein Analyte Peak Area_sample represents the Analyte Peak Area of the sample to which the compound was added; Analyte Peak Area_max represents the average value of Analyte Peak Area of positive control wells (representing the absence of the compound). The curve fitting was performed using Graphpad Prism software to obtain IC50 values, and the test results were as shown in table 2.

The next data set addresses T2, IDH2^R140Q (Homo sapiens, UniProt P48735, R140Q).
T2 sequence (P48735 40-452 R140Q): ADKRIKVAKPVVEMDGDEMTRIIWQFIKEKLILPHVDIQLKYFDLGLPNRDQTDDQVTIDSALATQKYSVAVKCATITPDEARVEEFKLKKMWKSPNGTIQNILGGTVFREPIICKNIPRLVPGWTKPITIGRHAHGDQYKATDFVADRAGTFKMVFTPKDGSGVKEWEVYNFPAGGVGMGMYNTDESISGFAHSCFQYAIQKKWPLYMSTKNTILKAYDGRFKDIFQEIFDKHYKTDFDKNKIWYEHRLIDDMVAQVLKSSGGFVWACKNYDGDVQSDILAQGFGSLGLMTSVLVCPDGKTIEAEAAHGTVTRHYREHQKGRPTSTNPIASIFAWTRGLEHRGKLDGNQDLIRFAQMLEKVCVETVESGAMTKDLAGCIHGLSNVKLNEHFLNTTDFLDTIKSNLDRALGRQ
The data set can be described thus: Enzyme activity inhibition assay (fluorescence-based), IDH2 R140Q. It is filed as biochemical. Here is the method:
as §1

The nature of data set [3]: Kinetic solubility experiment. The following applies: buffer, kinetic from dmso stock. The data set is classed as physicochemical. On the procedure:
1. Preparation of Solutions/Buffers at Different pH Values
• Solution A: 17.42 g of K2HPO4 was weighed and dissolved in 1 L of ultrapure water. • Solution B: 13.65 g of KH2PO4 was weighed and dissolved in 1 L of ultrapure water.
A certain mass of substance to be tested was accurately weighed and dissolved in a certain volume of DMSO to obtain a 20 mM or 10 mM stock solution.
An acetonitrile stopping solution containing 1 ng/mL of labetalol and glibenclamide was prepared.
3. Incubation System (n=3)
The above-mentioned solutions were placed in a 96-well plate, respectively and shaken in a thermostatic oscillator for 2 hours (37° C., 150 rpm).
4. Control solution: 200 μM control solution of the substance to be tested was prepared in methanol. 5. Sample treatment
At a predetermined time, the 96-well plate was placed in a centrifuge and centrifuged at 4100 rpm for 15 minutes. A certain volume of the supernatant and a certain volume of control solution were respectively taken into 19 times volume of water containing 70% acetonitrile that has been previously added. The mixture was uniformly mixed, diluted 20 times with an internal standard stop solution and shaken in a thermostatic oscillator at 700 rpm at room temperature for 5 min. Further dilution may be necessary depending on the sensitivity of the compound, and sample analysis was performed by LC-MS/MS.
The ratio of compound peak area to internal standard peak area was used for calculation. According to the concentration relationship between the compound in the buffer and the control solution, the calculated concentration was the kinetic solubility, and the calculation formula was as follows:
Solubility(μg/mL)=mass spectral peak area of the compound to be tested in buffers at different pHs×200μM×molecular weight of the compound to be tested(MW)/mass spectral peak area of the compound to be tested in methanol/1000;

Data set [4] can be described thus: Pharmacokinetic detection in dogs. It is filed as in vivo. The following applies: beagle dogs. Here is the method:
Adult beagle dogs (6-12 months of age) received a single dose of the compounds to be tested via intravenous administration (IV) or oral gavage administration (PO), respectively. In the IV single dose, 5% DMSO+5% Solutol+90% physiological saline was used as the excipient; the intravenous administration was carried out at a dose of 1 mg/kg (2 females and 2 males); and the venous blood collection time was 5 min, 15 min, 0.5 h, 1 h, 2 h, 4 h, 6 h, 8 h, 10 h and 24 h. In the PO single dose, 5% DMSO+5% Solutol+90% purified water was used as the excipient; the oral gavage administration was carried out at a dose of 5 mg/kg (2 females and 2 males); and the blood collection time was 15 min, 0.5 h, 1 h, 2 h, 4 h, 6 h, 8 h, 10 h and 24 h. Blood samples were collected in tubes containing EDTA anticoagulants and centrifuged at 4000 rpm at 4° C. for 10 min, and the supernatants were transferred to centrifuge tubes and stored at −20° C. For the detection, 30 μL of the plasma supernatant sample was taken, and 200 μL of an internal standard solution was added. The mixture was centrifuged at 3000 rpm for 10 minutes. Then, 100 μL of the supernatant solution was diluted with water at a 1:1 ratio and then injected with an injection volume of 5 μL. The concentration of the compounds to be tested in the plasma sample was analyzed by liquid chromatography-tandem mass spectrometry (LC-MS/MS). Plasma concentration-time data for individual animals were analyzed using Sciex Analyst software. The non-compartment model was introduced into the concentration analysis, and pharmacokinetic parameters (Cl_obs, Cmax and AUClast) of the compounds to be tested were calculated using WinNonlin (version 4.1; pHarsight) software.

The mark [5] stands for this setting: both sexes, dog, plasma, PO, 5 mg/kg.

T1 sequence (O75874 whole entry R132H): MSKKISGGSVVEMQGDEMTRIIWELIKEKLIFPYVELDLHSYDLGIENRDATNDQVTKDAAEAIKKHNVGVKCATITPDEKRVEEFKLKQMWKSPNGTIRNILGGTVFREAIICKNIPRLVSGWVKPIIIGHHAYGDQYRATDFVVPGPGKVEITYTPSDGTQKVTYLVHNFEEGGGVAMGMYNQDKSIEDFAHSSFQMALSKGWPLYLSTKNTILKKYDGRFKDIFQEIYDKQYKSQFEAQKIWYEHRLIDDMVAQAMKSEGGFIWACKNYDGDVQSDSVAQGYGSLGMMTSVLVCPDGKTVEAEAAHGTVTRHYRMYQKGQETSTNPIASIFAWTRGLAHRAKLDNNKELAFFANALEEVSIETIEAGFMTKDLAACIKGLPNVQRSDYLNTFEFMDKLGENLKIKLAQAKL

As for `N#Cc1ccnc(N2C(=O)CC[C@H]2C(=O)N(c2cncc(F)c2)[C@H](C(=O)NC2CC(F)(F)C2)c2ccccc2Cl)c1` [AG-120], the “patients in whom a decrease in α-hydroxyglutaric acid (2-HG) levels was observed” value in the data set with mutant IDH1 is listed as 98%.
Consider `C[C@@H](Nc1nc(N[C@H](C)C(F)(F)F)nc(-c2cc(Cl)c(N)c(Cl)n2)n1)C(F)(F)F` [Example 1], for which the IC50 (as a rule, the concentration that gives 50% inhibition) on IDH1^R132H [1] (numeric values) worked out at 143 nM; on IDH1^R132H [2] (numeric values) it was 26 nM; at IDH2^R140Q (numeric values), 128 nM.
Turning to `Cc1cc(-c2nc(N[C@H](C)C(F)(F)F)nc(N[C@H](C)C(F)(F)F)n2)nc(Cl)c1N` [Example 7, 6-(5-amino-6-chloro-4-methylpyridin-2-yl)-N^2,N^4-bis((R)-1,1,1-trifluoropropyl-2-yl)-1,3,5-triazine-2,4-diamine], the half-maximal inhibitory concentration (IC50) was > 1000 nM at IDH1^R132H [1] (class symbols), 50 to 100 nM on IDH1^R132H [2] (class symbols) and 100 to 1000 nM on IDH2^R140Q (class symbols).
The corresponding values for `C[C@@H](Nc1nc(N[C@H](C)C(F)(F)F)nc(-c2cc(C(F)F)c(N)c(Cl)n2)n1)C(F)(F)F` [Example 8, 6-(5-amino-6-chloro-4-(difluoromethyl)pyridin-2-yl)-N^2,N^4-bis((R)-1,1,1-trifluoroprop-2-yl)-1,3,5-triazine-2,4-diamine] are > 1000 nM, 100 to 1000 nM and 100 to 1000 nM.
The corresponding values for `C[C@@H](Nc1nc(N[C@H](C)C(F)(F)F)nc(-c2cc(F)c(Br)c(Cl)n2)n1)C(F)(F)F` [Example 18, 6-(5-bromo-6-chloro-4-fluoropyridin-2-yl)-N^2,N^4-bis((R)-1,1,1-trifluoroprop-2-yl)-1,3,5-triazine-2,4-diamine] are 50 to 100 nM, > 1000 nM and 50 to 100 nM.
The corresponding values for `C[C@@H](Nc1nc(N[C@H](C)C(F)(F)F)nc(-c2cc(Cl)c(O)c(Cl)n2)n1)C(F)(F)F` [Example 19, 6-(4,6-dichloro-5hydroxylpyridin-2-yl)-N^2,N^4-bis((R)-1,1,1-trifluoroprop-2-yl)-1,3,5-triazine-2,4-diamine] are 50 to 100 nM, > 1000 nM and 50 to 100 nM.
As to `C[C@@H](Nc1nc(N[C@H](C)C(F)(F)F)nc(-c2cc(F)c(N)c(F)n2)n1)C(F)(F)F` [Example 23, 6-(5-amino-4,6-difluoropyridin-2-yl)-N^2,N^4-bis((R)-1,1,1-trifluoroprop-2-yl)-1,3,5-triazine-2,4-diamine], the IC50 on IDH1^R132H [1] (class symbols) is 100 to 1000 nM; at IDH1^R132H [2] (class symbols), ≤ 50 nM; on IDH2^R140Q (class symbols) it was 100 to 1000 nM.
In the case of `C[C@@H](Nc1nc(N[C@H](C)C(F)(F)F)nc(-c2cccc(Cl)n2)n1)C(F)(F)F` [compound 1, reference compound], the solubility (commonly the concentration that dissolves in the medium under given conditions) at 2 h was 1.6 µg/mL (≈ 3.86 µM) in data set [3] (aqueous buffer, pH = 3.0, 37° C.); 1.4 µg/mL (≈ 3.38 µM) in data set [3] (aqueous buffer, pH = 5.0, 37° C.); 0.8 µg/mL (≈ 1.93 µM) in data set [3] (aqueous buffer, pH = 7.4, 37° C.); 39.6 µg/mL (≈ 95.5 µM) in data set [3] (simulated gastric fluid, pH = 1.0, 37° C.). The compound further returned a Cl_obs in data set [4] (IV, 1 mg/kg) of 24.2 mL/min/kg. Besides, the AUC(0-t) – broadly, the area under the concentration-time curve up to a stated or last time point – stood at 653 ng·h/mL in data set [4] (both sexes, dog, plasma, IV, 1 mg/kg) and 2160 ng·h/mL in data set [4] (setting [5]). For the same compound, the maximum concentration (Cmax) (as a rule, the peak of the concentration-time curve) in data set [4] (setting [5]) was determined as 658 ng/mL.
